Measurements from patent US20180105548A1, “A novel compound (KS-513) isolated from Pseudolysimachion rotundum var. subintegrum, the composition comprising the same preventing or treating allergic disease, inflammatory disease, asthma or chronic obstructive pulmonary disease and the use thereof” (priority 2015, published 2018).

Legend:
[1] = tested on: IL-1beta; assay: mRNA expression of IL-1beta in RAW264.7 cell line induced by LPS (real-time PCR); assay type: cell-based, mouse; conditions: for IL-1beta mRNA expression, Fold (value compared with a negative group) / IL-1beta mRNA expression, Inhibition ratio (IR) compared with LPS treatment group: LPS 1 μg/ml, 12 hours
Protocol: In order to determine the inhibitory effect on the mRNA expression of pro-inflammatory medicated enzyme such as iNOS or COX-2, and pro-inflammatory medicated cytokines such as IL-1beta, IL-6, TNF-alpha in RAW264.7 cell line induced by LPS, following test using by real-time PCR (real-time polymerase chain reaction, quantitative real time polymerase chain reaction, qPCR) was performed according to the method disclosed in the literature (Livak, K. J., Schimittgen T. D., 2001, Analysis of relative gene expression data using real-time quantitiative PCR and the 2 (-Delta Delta C(T) method, Methods 25, p 402-408):
RAW264.7 cell was inoculated into 6-well-plates in the concentration of 1×10^6 cell/well to incubate for 12 hours. Various concentration of KS-513 compound (2.5, 5, 10 and 20 μM) was pre-treated therewith and 1 μg/mL of LPS (L6529, Sigma) was added thereto to incubate for 12 hours.
To extract total RNA, RNA was extracted using by Triazol B (invitrogen) and cDNA was synthesized using by Omniscript RT kit (205113, Qiagen, Gmbh, Hilden, Germany) after the quantification. The synthesized cDNA was mixed with its template and the primers shown in Table 3 (SEQ.I.D. 1-14), performed to denaturation at 94° C. for 5 mins using by PCR mix (PCR master Mix, Bioneer, Korea), and reacted as follows: 1 cycle for pre-denaturation; at 95° C. for 30 sec, 60° C. for 45 sec, 72° C. for 45 sec, 30 cycles for denaturation; 10 mins at 72° C., 1cycle for final extension. (FIG. 2)

[2] = tested on: COX-2; assay: COX-2 protein expression in RAW264.7 cell induced by LPS (Western blot); assay type: cell-based, mouse; conditions: LPS 1 μg/ml, FIG. 4A
Protocol: In order to determine the inhibitory effect on the COX-2 protein expression and the reproduced level of PGE2, following test was performed by the method disclosed in the literature (Chen, C, et al., 1999, Involvement of p 38 mitogen-activated protein kinase in lipopolysaccharide-induced iNOS and COX-2 expression in J774 macrophage, Immunology, 97, pp 124-129)
The expressed level of COX-2 in RAW264.7 cell induced by LPS (1 μg/ml) was determined by using Western blot analysis according to the method disclosed in Experimental Example 3.

## CO[C@@H]1C[C@H]2[C@H](OC(=O)c3ccc(O)cc3)[C@@H]3O[C@]3(CO)[C@H]2[C@H](O[C@@H]2O[C@H](CO)[C@@H](O)C(O)[C@H]2O)O1 (stereo partly drawn) [KS-513, (1aS, 1bS,2S,4S,5aR,6S,6aS)-1a-(hydroxymethyl)-4-methoxy-2-(((2S,3R,5S,6R)-3,4,5-trihydroxy-6-(hydroxymethyl)tetrahydro-2H-pyran-2-yl)oxy)octahydrooxireno[2′,3′:4,5]cyclopenta[1,2-c]pyran-6-yl 4-hydroxybenzoate]
[1]; 2.5 μM
  IL-1beta mRNA expression, Fold (value compared with a negative group): 10.41 ± 1.09 Fold
  IL-1beta mRNA expression, Inhibition ratio (IR) compared with LPS treatment group: 37.69%
[1]; 5 μM
  IL-1beta mRNA expression, Fold (value compared with a negative group): 5.72 ± 0.24 Fold
  IL-1beta mRNA expression, Inhibition ratio (IR) compared with LPS treatment group: 65.75%
[1]; 10 μM
  IL-1beta mRNA expression, Fold (value compared with a negative group): 2.56 ± 0.14 Fold
  IL-1beta mRNA expression, Inhibition ratio (IR) compared with LPS treatment group: 84.68%
[1]; 20 μM
  IL-1beta mRNA expression, Fold (value compared with a negative group): 1.70 ± 0.59 Fold
  IL-1beta mRNA expression, Inhibition ratio (IR) compared with LPS treatment group: 89.85%
[1]; various concentration, compared with control group treated with LPS (100%)
  expressed level of mRNA of IL-1beta: significantly decreased in a dose dependent manner
[2]
  expressed level of COX-2 protein: reduced in a dose dependent manner
